The record followed here is patent US5244916A, “Inhibition of respiratory burst using posttranslational modification inhibitors” (The Scripps Research Institute, priority 1992, dated 1993).

Data set [1] in a line: HL-60 cell viability by propidium iodide uptake (flow cytometry). The settings on record: human, hl-60 cells. How it is done: (§1) HL-60 cells were maintained in stationary culture in RPMI 1640 medium (Gibco, Grand Island, NY) containing 10% fetal bovine serum at 37° C in an atmosphere of 95 air and 5% CO2. The cells (about 8×10^5 /ml) were differentiated into neutrophil-like cells by treatment with 1.3% DMSO for six days (Harris, et al., J. Leukocyte Biol. 37: 407-422 (1985)). […] […] In studies of the protective effect of mevalonic acid, the compound was added as the mevalonolactone (Sigma Chemical Co., St. Louis, MO) at a concentration of 1 mM to the cell culture on days 4 to 6. Similarly, cholesterol was added in the form of LDL prepared according to the method of Curtiss and Edgington (Curtiss, et al., J. Biol. Chem. 257: 15213-15221 (1991)) at a final concentration of 50 μg/ml; ubiquinone (Sigma Chemical Co., St. Louis, MO) was added as Coenzyme Q-10 at a final concentration of 0.5 mM; and dolichol (Sigma Chemical Co., St. Louis, MO) was added as a dispersion in phosphatidylcholine at a final concentration of 0.5 mM (Cutts, et al., J. Cell Physiol. 139: 550-555 (1989)).
(§2) Cell viability was determined by uptake of propidium iodide (537-059; Calbiochem-Behring Corp., La Jolla, CA), detected from the emission fluorescence at 625/35 nm using a DM560 dichronic mirror (Krishan, J. Cell. Biol. 66: 188-192 (1975)). Expression of N-formyl peptide receptor was determined using fluorescein-labeled N-CHONle-Leu-Phe-Nle-Tyr-Lys (Molecular Probes, Inc., Eugene, OR) essentially by the method of Sklar and Finney (Sklar and Finney, Cytometry 3: 161-165 (1982)). Specificity of ligand binding was determined in the presence of 4 mM unlabeled T-boc peptide. CD14 expression was determined using monoclonal antibody 3C10 at a dilution of 1:1,000 (see Goyert and Ferrero, in Leucocyte Typing III: White Cell Differentiation Antigens, McMichael, ed., Oxford Univ. Press, NY, pp. 613-619 (1988)), with detection using a fluorescein-labeled secondary antibody. Flow cytometric analyses were performed on a FACSIV (registered trademark of Becton-Dickinson, San Jose, CA) equipped with a 2W argon laser (Coherent Inc., Palo Alto, collected in list mode and analyzed using the Consort 30 program (Becton-Dickinson, San Jose, CA) after collecting 10,000 events.

Data set [2] relates to HL-60 cells. Described as above. The procedure: as §1, §2
Data set [3] relates to N-formyl peptide receptor. The data set can be described thus: HL-60 differentiation: N-formyl peptide receptor expression (flow cytometry). The settings on record: compactin-treated cells. Format: cell-based. The procedure: (§3) HL-60 cells were maintained in stationary culture in RPMI 1640 medium (Gibco, Grand Island, NY) containing 10% fetal bovine serum at 37° C in an atmosphere of 95 air and 5% CO2. The cells (about 8×10^5 /ml) were differentiated into neutrophil-like cells by treatment with 1.3% DMSO for six days (Harris, et al., J. Leukocyte Biol. 37: 407-422 (1985)). The cells were treated with the indicated levels of compactin or lovastatin by addition of a 1,000-fold concentrated stock solution to the appropriate concentration on day 4 of differentiation. […]
(§4) Cell viability was determined by uptake of propidium iodide (537-059; Calbiochem-Behring Corp., La Jolla, CA), detected from the emission fluorescence at 625/35 nm using a DM560 dichronic mirror (Krishan, J. Cell. Biol. 66: 188-192 (1975)). Expression of N-formyl peptide receptor was determined using fluorescein-labeled N-CHONle-Leu-Phe-Nle-Tyr-Lys (Molecular Probes, Inc., Eugene, OR) essentially by the method of Sklar and Finney (Sklar and Finney, Cytometry 3: 161-165 (1982)). Specificity of ligand binding was determined in the presence of 4 mM unlabeled T-boc peptide. […]
(§5) HL-60 differentiation was assessed using two distinct markers: appearance of N-formyl peptide receptors and appearance of the CD14 antigen.
In general terms: Flow cytometry measures light scatter and fluorescence of single cells or particles in a stream.

The next data set has as its system CD14 antigen. Kind of data set: HL-60 differentiation: CD14 antigen expression (flow cytometry). Format: cell-based. The following applies: compactin-treated cells. The procedure:
as §3, §4, §5

The test system of another data set is cytochrome b558. The data set can be described thus: Cytochrome b558 levels in HL-60 cells by Western blot. The settings on record: 10 μM compactin. Format: cell-based. Background: In western blotting, separated proteins are transferred to a membrane and probed.
The subject of data set [4] is peripheral blood neutrophils. Kind of data set: Respiratory burst of peripheral blood neutrophils in response to FMLP after short-term compactin. Format: cell-based. The following applies: 10 μM, up to two hours.
Another data set concerns NADPH oxidase. The data set can be described thus: Cell-free oxidase system with compactin included in the assay cuvette. Format: biochemical. The settings on record: 10 μM compactin in the assay cuvette. How it is done:
To assess O2 --formation using HL-60 membrane and cytosol, the cell-free system of Curnutte, et al. (Curnutte, et al., J. Biol. Chem. 262: 5563-5569 (1987); Curnutte, et al.,m J. Biol. Chem. 262: 6450-6452 (1987)) was utilized. Briefly, HL-60 membrane pellet (50-60μg) or human neutrophil membrane (6.35×10^6 cell equivalents) was added to a cuvette containing 100 μM cytochrome c (type III, Sigma Chemical Co., St. Louis, MO), 6.25 mM MgCl2, 93 mM KCl, 2.8 mM NaCl, 9.3 mM Pipes pH 7.3, 0.8mM ATP, 0.16 mM NADPH, 10 μM GTPgammaS, 225 μg HL-60 cytosol, or 250 μg ([…]; cell equivalents) of human neutrophil cytosol and ±300μg/ml SOD (Sigma Chemical Co., St. Louis, MO). After a three-minute equilibration at 25° C., the formation of O2 --was initiated by the addition of 100 μM SDS. O2 --generation was monitored continuously as the SOD-sensitive reduction of cytochrome c at 550 nm. Human neutrophil plasma membranes (gamma-GSP) and cytosol (GSS) were prepared as described in (Curnutte, et al., suora (1987)).
Treatment of peripheral blood neutrophils with 10 μM compactin for up to two hours produced no effect upon the ability of these cells to support a respiratory burst in response to FMLP. […] It seems unlikely that both compounds would randomly produce similar nonspecific toxic effects on the NADPH oxidase.

Data set [5] has as its system HL-60 cells. Kind of data set: HL-60 differentiation after DMSO (N-formyl peptide receptor and CD14 markers). Format: cell-based. The following applies: concentrations of the studies. How it is done:
as §2, §5

The structures appear in SMILES notation.

Usually viability stands for a per cent measure of how many cells are alive, often set against a control. Read a high viability as better survival. In data set [1], `CC[C@H](C)C(=O)O[C@H]1CCC=C2C=C[C@H](C)[C@H](CC[C@@H]3C[C@@H](O)CC(=O)O3)[C@H]21` [compactin] returned a viability at 0.4 µM of 100 ± 1.6%, a viability at 2 µM of 95 ± 1.2%, a viability at 4 µM of 97 ± 0.9% and a viability at 10 µM of 96 ± 1.2%. For the same molecule, the HL-60 cell viability entry in the data set with HL-60 cells [2] (compactin treatment, concentrations of the studies) is reported as “not affected”. For the same molecule, in the data set on HL-60 cells [2] (higher concentrations of each drug), the “cell viability when inhibitor added at day 1 of differentiation” value is given as “somewhat decreased”. Also, the “N-formyl peptide receptor expression” value in data set [3] was “normal”. Moreover, the CD14 expression result in the data set with CD14 antigen was “normal”. For the same molecule, in the data set with cytochrome b558, the “expression of cytochrome b558” value is on record as “normal”. Also, the “effect on respiratory burst of peripheral blood neutrophils” value in data set [4] is “no effect”. Also, the “inhibition of O2- formation, cell-free” value in the data set on NADPH oxidase is “did not inhibit”. Also, in the data set with HL-60 cells [5], the “ability of HL-60 cells to differentiate normally upon exposure to DMSO” value is “neither was the ability of these cells to differentiate normally”.
